# Reference: PMC4042574, “Phenolic Lipids Affect the Activity and Conformation of Acetylcholinesterase from Electrophorus electricus (Electric eel)” (Nutrients, 2014)
# Where two headings read alike, the source gives them in different places.
# Molecular target: acetylcholinesterase (AChE) from Electrophorus electricus (electric eel) (Electrophorus electricus, UniProt O42275)
# Experiment: Ellman assay, […] nm
# Assay type: biochemical
# Chain of acetylcholinesterase (AChE) from Electrophorus electricus (electric eel) (O42275 24-633): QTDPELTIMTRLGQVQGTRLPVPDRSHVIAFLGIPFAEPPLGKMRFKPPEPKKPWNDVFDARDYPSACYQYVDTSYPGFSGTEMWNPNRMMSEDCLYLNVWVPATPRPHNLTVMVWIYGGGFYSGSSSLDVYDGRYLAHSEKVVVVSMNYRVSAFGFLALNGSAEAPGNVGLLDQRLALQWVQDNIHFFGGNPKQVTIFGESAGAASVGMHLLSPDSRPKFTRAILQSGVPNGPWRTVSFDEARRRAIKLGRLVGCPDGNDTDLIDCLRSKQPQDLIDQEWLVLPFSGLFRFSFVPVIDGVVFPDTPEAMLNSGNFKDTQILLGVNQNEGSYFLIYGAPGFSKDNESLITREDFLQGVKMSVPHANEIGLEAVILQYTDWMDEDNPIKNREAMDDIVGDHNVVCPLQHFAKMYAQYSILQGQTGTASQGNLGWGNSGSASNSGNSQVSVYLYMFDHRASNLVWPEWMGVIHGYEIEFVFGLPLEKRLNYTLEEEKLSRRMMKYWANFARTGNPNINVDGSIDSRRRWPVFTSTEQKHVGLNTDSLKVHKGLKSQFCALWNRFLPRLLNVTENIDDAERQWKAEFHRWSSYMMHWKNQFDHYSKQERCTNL
Molecule,IC50 [µM],"IC50 (acetylthiocholine iodide (0.476 μM as printed), pH 8.0, 37 °C, 5 min pre-incubation) [µM]"
CCCCCCCCCCCCCCCCCCCCCc1cc(O)cc(O)c1 [AR 21:0],44 ± 0.47,–
CCCCCCCCCCCCCCCc1cc(O)cc(O)c1 [AR 15:0],> 94,–
CCCCCCCCCCCCCCCCCCCCCCCCCc1cc(O)cc(O)c1 [AR 25:0],44 ± 4.24,–
CCCCCCCCCCCCCCCCCCCc1cc(O)cc(O)c1 [AR 19:0],77 ± 1.25,–
Cardol,–,3.5 ± 0.2
